Non-standard residues stand in square brackets, D forms with d. pGlu = O=C1CC[C@@H](C(=O)O)N1

Common to all, as to format: cell-based, human
The subject of assay [1] is gluten-reactive T cells. Description: 96-well plate whole blood cytokine release, IP-10 by MAGPIX multiplex bead assay. The following applies: for Percent of maximal response to individual gluten peptides, IP-10: after oral gluten challenge; for IP-10 WB MAGPIX % max Mean: n = 10, blood after oral gluten challenge, individual peptides 5 μM (Peptide 2* of P14, Pepscan: 10 μg/mL (5.45 μM)).

In assay [2] the test system is gluten-reactive T cells. The experiment in a line: Overnight IFNγ ELISpot assay with fresh PBMC. Conditions: n = 5, blood after oral gluten challenge, individual peptides 5 μM (Peptide 2* of P14, Pepscan: 10 μg/mL (5.45 μM)). As to the method: HLA-DQ2.5-positive celiac disease subjects on gluten-free diet were used in this study. Blood was collected immediately before and 6 days after commencing 3-day oral gluten challenge. Whole blood or PBMCs were incubated with pools or single peptides derived from gluten or recall antigens. IFNγ and IP-10 levels were measured in plasma from the whole blood that was incubated in 96-well plates with peptides or peptide pools. Plasma cytokine/chemokine levels were measured by MAGPIX® multiplex bead assay (IFNγ and IP-10) or by ELISA (IFNγ and IP-10), and PBMC separated from the same blood sample were incubated in overnight IFNγ ELISpot assays.
Overnight IFNγ ELISpot assays (Human IFN-γ ELISpotPRO kit, transparent, ALP; Mabtech AB, #3420-2APT-10) were performed using PBMC freshly separated from heparinized blood diluted 1:1 in PBS with 2% fetal bovine serum (Stemcell Technologies #07905; Vancouver, BC, V5Z 1B3, Canada) overlaid on density gradient medium (Ficoll-Paque™ PLUS; GE Healthcare Lice Sciences #:17-1440-02) in SepMate™-50 tubes (Stemcell Technologies #15460). PBMC (8 million/mL) were resuspended in serum-free medium with gentamicin and phenol red (X-VIVO™15; Lonza, Walkersville Mass. 21793). PBMC (0.4 million/50 pt/well) and incubated with 50 μL 80% X-vivo15, 0.2% DMSO and 20% PBS in three triplicate wells (“medium only”), or with 50 μL PHA-L 20 μg/ml or peptide at 2× final concentration in 80% X-vivo15, 0.2% DMSO and 20% PBS. Peptide solutions to be added to individual ELISpot wells were prepared in 96-well U-bottom plates (60 pt/well) that were then sealed with adhesive ELISA plate cover slips before replacing the plastic lid and being frozen at −80° C. 96-well plates containing peptide solutions were thawed at room temperature for 10 min while being centrifuged at 300 g immediately prior to being added to ELISpot wells. Peptide pools and mitogen were assessed in triplicate wells, and individual peptides were assessed in duplicate wells. X-VIVO™15 (50 μL) was incubated with 80% X-vivo15, 0.2% DMSO and 20% PBS (50 μL) in triplicate wells (“no PBMC” control). A Zeiss automated ELISpot counter was used to determine spot forming units (SFU) per well (Zellnet Inc., Fort Lee, N J 07024). Laboratory staff were unaware of the arrangement of peptide solutions in ELISpot wells during assay setup and plate counting.

Assay [3] deals with gluten-reactive T cells. The experiment in a line: 96-well plate whole blood cytokine release, IFNγ by MAGPIX multiplex bead assay. The following applies: n = 8, blood after oral gluten challenge, individual peptides 5 μM (Peptide 2* of P14, Pepscan: 10 μg/mL (5.45 μM)).
Assay [4] relates to gluten-reactive T cells. The experiment in a line: Cytokine release assays taken together (IFNγ ELISpot, whole blood IFNγ and IP-10, in-tube IFNγ ELISA). The following applies: blood collected after oral gluten challenge. As to the method:
Gluten peptide solutions for addition to whole blood were arranged according to standardized templates in sterile 96-well U-bottom plates (30 μL/well). Plates were sealed with adhesive ELISA plate cover slips before the plastic lid was replaced and being frozen at −80° C. Whole blood assay (WBA) “medium” (1% DMSO in 90% PBS and 9% normal saline), mitogen (PHA-L, Sigma-Aldrich #L2769; St Louis Mo.) 100 μg/ml in WBA medium, and CEF diluted to 10 μg/ml in PBS with a final concentration of 1% DMSO were frozen separately in sterile cryovials. 96-well plates and cryovials with frozen incubation solutions were shipped on dry ice to the clinical site where blood was collected and incubations performed. Solutions were thawed at room temperature for 10 min just before being added to whole blood. 96-well plates were thawed while being centrifuged at 300 g to avoid surface condensation. A multi-channel pipette was used to efficiently transfer 25 μL of peptide solutions from the original 96-well plate to corresponding wells in a fresh sterile 96-well U-bottom plate. Once incubation solutions had been added, 225 μL of whole blood was added to each well and the plate transferred to incubate for 24 h at 37° C. 5% CO2. […] Individual peptides were incubated at a final assay concentration of 51.1M. Final concentrations of individual peptides assessed in P3 was 0.05-50 μg/mL, and in P14 and P13 pools 0.025-25 μM. The P71 pool was tested at between 0.005-10 pg/mL, the highest tested concentration being the maximal possible not exceeding 0.1% DMSO. Peptide pools, mitogen, and medium only were assessed in triplicate wells, and on Day-6 individual peptides were assessed in duplicate wells. Incubations were terminated after 24 h, and 96-well plates centrifuged at 300 g for 10 min. A total of approximately 90 to 120 μL of plasma was removed from each well taking care to avoid red cell contamination, and transferred into corresponding wells of two further 96-well plates (one with 30 μL/well and the residual in the second plate). Plasmas were frozen at −80° C. and later shipped on dry ice to the central lab where IP-10 and IFNγ multiplex bead assays were performed according to manufacturer's instructions using 25 μL plasma per well (Milliplex® MAP Human Cytokine/Chemokine Magnetic Bead Panel #HCYTOMAG-60k-02; EMD Millipore Corp., Billerica, Mass. 01821) and analysed with the Luminex® MAGPIX® System xPONENT® software (Luminex Corporation, Austin Tex. 78727). Plasma cytokine levels for each assay condition were expressed as the mean analyte concentration of each of the three replicate incubations. Laboratory staff were unaware of the arrangement of peptide solutions incubated with during assay setup and plate counting.
Aliquots of PBS, P3 peptides diluted in PBS (final concentration in blood 3× 50 or CEF to a final concentration 1 μg/mL were prepared in sterile cryovials (0.11 mL/vial) and stored frozen (−80° C.) until immediately before use. P3, CEF and two PBS aliquots were drawn up in separate sterile 0.3 mL insulin syringes with attached 29G×½″ needle (Terumo, SS*30M2913; Elkton Md. 21921). P3, CEF and one PBS aliquot was injected through the stoppers of three separate QuantiFERON® NIL tubes already containing 1 mL blood, and one aliquot of PBS was injected into a QuantiFERON® MITOGEN tube already containing 1 mL blood. All four tubes containing blood and incubation solution were gently inverted ten-times and transferred to incubate at 37° C. 5% CO2. After for 24 h, tubes were centrifuged 300 g 10 min. Plasma was separated and equal volumes placed in two 1.5 mL cryovials. Frozen plasmas were transferred to the central lab where IFNγ levels were measured in triplicate 50 μL samples by ELISA (MABtech Human IFN-γ ELISA development kit HRP, 3420-1H-6; capture mAb 1-D1K). […]

For “(pE)QPFPQPEQPFPWQP-amide ([pGlu]QPFPQPEQPFPWQP-NH2; SMILES NC(=O)CC[C@H](NC(=O)[C@H](Cc1c[nH]c2ccccc12)NC(=O)[C@@H]1CCCN1C(=O)[C@H](Cc1ccccc1)NC(=O)[C@@H]1CCCN1C(=O)[C@H](CCC(N)=O)NC(=O)[C@H](CCC(=O)O)NC(=O)[C@@H]1CCCN1C(=O)[C@H](CCC(N)=O)NC(=O)[C@@H]1CCCN1C(=O)[C@H](Cc1ccccc1)NC(=O)[C@@H]1CCCN1C(=O)[C@H](CCC(N)=O)NC(=O)[C@@H]1CCC(=O)N1)C(=O)N1CCC[C@H]1C(N)=O) [Peptide 2, two preparations tested separately: CSBio (5 μM) and Pepscan re-synthesis (10 μg/mL)]”, the “Percent of maximal response to individual gluten peptides, IP-10” value in the assay on gluten-reactive T cells [1] (Subject 3, Max. 9492 pg/mL) is listed as ≥ 100 % of max; with gluten-reactive T cells [1] (Subject 4, Max. 9463 pg/mL) it was ≥ 100 % of max. For the same substance, the figures for the “IP-10 WB MAGPIX % max Mean” value in the assay on gluten-reactive T cells [1] and with gluten-reactive T cells [1] (listed as Peptide 2*) were 43 % max and 49 % max, respectively. Besides, the “IFNγ ELISpot % max Mean” value in the assay with gluten-reactive T cells [2] turned out to be 19 % max; with gluten-reactive T cells [2] (listed as Peptide 2*) it was 25 % max. For the same substance, the “IFNγ WB MAGPIX % max Mean” value with gluten-reactive T cells [3] was 23 % max; in the assay on gluten-reactive T cells [3] (listed as Peptide 2*), 27 % max. In addition, the “activity relative to Peptide 14 in the cytokine release assays” value in the assay with gluten-reactive T cells [4] is listed as “approximately one-half to one-fifth as active as Peptide 14”.

(Values after patent US20170045513A1, “METHODS OF DIAGNOSING CELIAC DISEASE USING IP-10” (ImmusanT, Inc., priority 2014, published 2017).)
